Where only a bound is given, the exact number is not on record here.

For the test, the system named is HUVEC. The test can be described thus: Human Umbilical Vein Endothelial Cell (HUVEC) proliferation assay (BrdU incorporation). The format is cell-based. Particulars: VEGF-stimulated HUVEC, 72 hrs, read-out: Inhibition of HUVEC proliferation IC50.

Take `COc1ccc(S(=O)(=O)Nc2cccc(Nc3nccc(N(C)c4ccc5c(C)n[nH]c5c4)n3)c2)cc1` [Example 42, 4-methoxy-N-[3-({4-[methyl(3-methyl-1H-indazol-6-yl)amino]-2-pyrimidinyl}amino)phenyl]benzenesulfonamide]: the IC50 was 201 to 500 nM.

For `CCS(=O)(=O)c1ccc(Nc2nccc(N(C)c3ccc4c(C)n[nH]c4c3)n2)cc1` [Example 57, N^2-[4-(ethylsulfonyl)phenyl]-N^4-methyl-N^4-(3-methyl-1H-indazol-6-yl)-2,4-pyrimidinediamine], the IC50 lay within 201 to 500 nM.

Regarding `CCN(c1ccc2c(C)n[nH]c2c1)c1nc(Nc2cc(S(C)(=O)=O)ccc2OC)ncc1F` [Example 10, N^4-ethyl-5-fluoro-N^2-[2-methoxy-5-(methylsulfonyl)phenyl]-N^4-(3-methyl-1H-indazol-6-yl)-2,4-pyrimidinediamine], the IC50 is greater than 1000 nM.

Take `CCS(=O)(=O)c1ccc(OC)c(Nc2nccc(Nc3ccc4c(C)n[nH]c4c3)n2)c1` [Example 55, N^2-[5-(ethylsulfonyl)-2-methoxyphenyl]-N^4-(3-methyl-1H-indazol-6-yl)-2,4-pyrimidinediamine]: the IC50 lay in the range of 1 to 200 nM.

These data come from patent US8114885B2, “Chemical compounds” (GlaxoSmithKline LLC, priority 2000, dated 2012).
